Read-outs that look alike come from different tables or passages of the source.
Tests used:
[1] = system: human multiple myeloma cell line, OPM-2; test: Cell viability assay (OPM-2 10 FBS), CellTiter-Glo; assay type: cell-based
Summary of the method: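 Steps: plate cells at 3000/well in 10% FBS growth medium, add serially diluted compound, incubate 16 h at 37 °C with 5% CO2, add detection reagent and read luminescence after 25 min. A 4-parameter logistic model gives IC50.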

[2] = target: recombinant human Mcl-1 (residues 171-327) / Bim interaction (Homo sapiens (Human), UniProt Q07820); test: biochemical; assay type: binding; conditions: read-out: Mcl-1 HTRF IC50
[3] = Homo sapiens, OPM-2, 16 h, read-out: OPM-2 10% FBS IC50 IP, OPM-2 cells, 10% FBS, 16 h, CellTiter-Glo
[4] = TR-FRET, Mcl-1(171-327) / biotin-Bim (51-76)

Chain of recombinant human Mcl-1 (residues 171-327) / Bim interaction (Q07820 171-327): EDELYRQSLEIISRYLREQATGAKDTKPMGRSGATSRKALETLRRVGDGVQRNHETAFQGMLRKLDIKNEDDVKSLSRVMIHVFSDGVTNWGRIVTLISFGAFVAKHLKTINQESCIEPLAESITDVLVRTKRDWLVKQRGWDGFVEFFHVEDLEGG

CO[C@@]1(Cc2nc(CN(C)C)c(C)o2)/C=C/C[C@H](C)[C@@H](C)S(=O)(=O)NC(=O)c2ccc3c(c2)N(C[C@@H]2CC[C@H]21)C[C@@]1(CCCc2cc(Cl)ccc21)CO3 [Example 100586, (1S,3′R,6′R,7′S,8′E,11′S,12′R)-6-chloro-7′-((4-((dimethylamino)methyl)-5-methyl-1,3-oxazol-2-yl)methyl)-7′-methoxy-11′,12′-dimethyl-3,4-dihydro-2H,15′H-spiro[naphthalene-1,22′-[20]oxa[13]thia[1,14]diazatetracyclo [14.7.2.0~3,6~.0~19,24~]pentacosa[8,16,18,24]tetraen]-15′-one 13′,13′-dioxide]
IC50 [1, 3]: 453 nM
IC50 [2, 4]: 0.074 nM

C[C@@H]1[C@@H](C)C/C=C/[C@](O)(c2nc(CO)nn2C)[C@@H]2CC[C@H]2CN2C[C@@]3(CCCc4cc(Cl)ccc43)COc3ccc(cc32)C(=O)NS1(=O)=O [Example 100201, (1S,3′R,6′R,7′R,8′E,11′S,12′R)-6-chloro-7′-hydroxy-7′-(3-(hydroxymethyl)-1-methyl-1H-1,2,4-triazol-5-yl)-11′,12′-dimethyl-3,4-dihydro-2H,15′H-spiro[naphthalene-1,22′-[20]oxa[13]thia[1,14]diazatetracyclo [14.7.2.0~3,6~.0~19,24~]pentacosa[8,16,18,24]tetraen]-15′-one 13′,13′-dioxide]
IC50 [1, 3]: 307 nM
IC50 [2, 4]: 0.086 nM

CO[C@]1(CN2CC(C)(N(C)C)C2)/C=C/C[C@H](C)[C@@H](C)S(=O)(=O)NC(=O)c2ccc3c(c2)N(C[C@@H]2CC[C@H]21)C[C@@]1(CCCc2cc(Cl)ccc21)CO3 [Example 60, (1S,3′R,6′R,7′R,8′E,11′S,12′R)-6-chloro-7′-((3-(dimethylamino)-3-methyl-1-azetidinyl)methyl)-7′-methoxy-11′,12′-dimethyl-3,4-dihydro-2H,15′H-spiro[naphthalene-1,22′-[20]oxa[13]thia[1,14]diazatetracyclo [14.7.2.0~3,6~.0~19,24~]pentacosa[8,16,18,24]tetraen]-15′-one 13′,13′-dioxide]
IC50 ([1]; Homo sapiens, OPM-2, 16 h, read-out: OPM-2 10% FBS IC50 IP, OPM-2 cells, 10% FBS, 16 h incubation): 129 nM
IC50 ([2]; 0.1 nM Mcl-1(171-327), 0.05 nM biotin-Bim (51-76)): 0.287 nM

Cc1onc(C[C@]2(O)/C=C/C[C@H](C)[C@@H](C)S(=O)(=O)NC(=O)c3ccc4c(c3)N(C[C@@H]3CC[C@H]32)C[C@@]2(CCCc3cc(Cl)ccc32)CO4)c1C [Example 100578, (1S,3′R,6′R,7′S,8′E,11′S,12′R)-6-chloro-7′-((4,5-dimethyl-1,2-oxazol-3-yl)methyl)-7′-hydroxy-11′,12′-dimethyl-3,4-dihydro-2H,15′H-spiro[naphthalene-1,22′-[20]oxa[13]thia[1,14]diazatetracyclo [14.7.2.0~3,6~.0~19,24~]pentacosa[8,16,18,24]tetraen]-15′-one 13′,13′-dioxide]
IC50 [1, 3]: 595 nM
IC50 [2, 4]: 0.089 nM

COCCC[C@]1(O)/C=C/C[C@H](C)[C@@H](C)S(=O)(=O)NC(=O)c2ccc3c(c2)N(C[C@@H]2CC[C@H]21)C[C@@]1(CCCc2cc(Cl)ccc21)CO3 [Example 100160, (1S,3′R,6′R,7′S,8′E,11′S,12′R)-6-chloro-7′-hydroxy-7′-(3-methoxypropyl)-11′,12′-dimethyl-3,4-dihydro-2H,15′H-spiro[naphthalene-1,22′-[20]oxa[13]thia[1,14]diazatetracyclo [14.7.2.0~3,6~.0~19,24~]pentacosa[8,16,18,24]tetraen]-15′-one 13′,13′-dioxide]
IC50 [1, 3]: 78 nM
IC50 [2, 4]: 0.169 nM

COc1ncccc1[C@@]1(O)/C=C/C[C@H](C)[C@@H](C)S(=O)(=O)NC(=O)c2ccc3c(c2)N(C[C@@H]2CC[C@H]21)C[C@@]1(CCCc2cc(Cl)ccc21)CO3 (single isomer, unassigned) [Example 100334]
IC50 ([1]; read-out: OPM-2 10% FBS IC50 IP, OPM-2 cells, 10% FBS, 16 h, CellTiter-Glo): 1470 nM
IC50 [2, 4]: 3.27 nM

CO[C@@]1(c2cnccn2)/C=C/C[C@H](C)[C@@H](C)S(=O)(=O)NC(=O)c2ccc3c(c2)N(C[C@@H]2CC[C@H]21)C[C@@]1(CCCc2cc(Cl)ccc21)CO3 (single isomer, unassigned) [Example 100379]
IC50 [1, 3]: 71 nM
IC50 [2, 4]: 0.06 nM

Source: US10821115B2, “Compounds that inhibit Mcl-1 protein” (priority 2017, dated 2020)
